From publication PMC8635440 (Science Advances, 2021)
One block for each molecule: values may come before it. Positions of bridges follow the written chain, without caps; N, C: chain ends. Non-standard residues stand in square brackets, D forms with d. Residues, ends and D or L forms follow the SMILES beside them.

Experiments:
retromer holo-complex = retromer holo-complex (Homo sapiens, UniProt O75436+Q96QK1+Q9UBQ0); test: Differential scanning fluorimetry of retromer; type: binding; conditions: DSF
Vps29 = Vps29 (Homo sapiens, UniProt Q9UBQ0); test: Differential scanning fluorimetry of Vps29; type: binding; conditions: DSF, 20-fold molar excess
[1] = tested on: TBC1D5 localization in HeLa cells; test: TBC1D5 endosomal localization after SLO delivery of peptide; type: cell-based, human; conditions: 2 hours recovery, colocalization with SNX1
[2] = molecular target: GST-TBC1D5TBC binding to retromer (Homo sapiens, UniProt O75436+Q96QK1+Q9UBQ0); test: GST pull-down assay; conditions: GST pulldown, purified proteins
SNX27PDZ into Retromer = SNX27PDZ into Retromer (Homo sapiens, UniProt O75436+Q96QK1+Q9UBQ0); test: ITC of SNX27PDZ into retromer in presence of cyclic peptide; type: binding, mouse SNX27; conditions: 1.3 mM SNX27PDZ into 30 μM retromer + 150 μM peptide; native (DMSO) 13.0 ± 0.5
TBC1D5TBC into Retromer = TBC1D5TBC into Retromer (Homo sapiens, UniProt O75436+Q96QK1+Q9UBQ0); test: ITC of TBC1D5TBC into retromer in presence of cyclic peptide; type: binding; conditions: native 370 nM
Solubility observations = type: physicochemical; conditions: ITC buffer
[3] = molecular target: Vps26A9-298_Vps351-390 (Δ C-term. tail complex) (Homo sapiens, UniProt O75436+Q96QK1); test: ITC binding to Vps26A ΔC-term. tail subcomplex; conditions: 25°C, Vps26A C-terminal tail removed
[4] = molecular target: retromer binding to SNX3–CI-MPR cargo-PtdIns3P liposomes (Homo sapiens, UniProt O75436+Q96QK1+Q9UBQ0); test: Liposome binding assay; conditions: Folch I liposomes, 7 μM retromer-SNX3
[5] = molecular target: Vps26A-Vps35_1–390 subcomplex (Homo sapiens, UniProt O75436+Q96QK1); test: Differential scanning fluorimetry of Vps26A-Vps35 1-390; type: binding; conditions: DSF
Vps26A = Vps26A (Homo sapiens, UniProt O75436); test: Differential scanning fluorimetry of Vps26A; type: binding; conditions: DSF, control experiment
[6] = molecular target: retromer and its ligands in HeLa cell lysates (Homo sapiens, UniProt O75436+Q96QK1+Q9UBQ0); test: Biotinylated cyclic peptide pull-down from HeLa cell lysates; type: binding; conditions: streptavidin agarose, Western blotting
Vps26BΔC-Vps35_1–390 = Vps26BΔC-Vps35_1–390 (UniProt Q8C0E2+Q96QK1); test: ITC binding to Vps26B ΔC-term. tail subcomplex; parameters: species or system mouse Vps26B, human Vps35
[7] = molecular target: Rab7a with TBC1D5TBC and retromer (Homo sapiens, UniProt O75436+Q96QK1+Q9UBQ0); test: GTPase activity assay; type: biochemical; conditions: 10 μM Rab7a, 3 μM TBC1D5TBC, 6 μM retromer, 60 μM peptide
zfRetromer = zfRetromer (Danio rerio, UniProt A4QP42+Q6TNP8); test: ITC binding to zebrafish retromer
ctRetromer = molecular target: T1, ctRetromer (Thermochaetoides thermophila, UniProt G0S0E6+G0S709); test: ITC binding to C. thermophilum retromer; parameters: species or system Chaetomium thermophilum; conditions: 25°C
T1 sequence (G0S709 1-869): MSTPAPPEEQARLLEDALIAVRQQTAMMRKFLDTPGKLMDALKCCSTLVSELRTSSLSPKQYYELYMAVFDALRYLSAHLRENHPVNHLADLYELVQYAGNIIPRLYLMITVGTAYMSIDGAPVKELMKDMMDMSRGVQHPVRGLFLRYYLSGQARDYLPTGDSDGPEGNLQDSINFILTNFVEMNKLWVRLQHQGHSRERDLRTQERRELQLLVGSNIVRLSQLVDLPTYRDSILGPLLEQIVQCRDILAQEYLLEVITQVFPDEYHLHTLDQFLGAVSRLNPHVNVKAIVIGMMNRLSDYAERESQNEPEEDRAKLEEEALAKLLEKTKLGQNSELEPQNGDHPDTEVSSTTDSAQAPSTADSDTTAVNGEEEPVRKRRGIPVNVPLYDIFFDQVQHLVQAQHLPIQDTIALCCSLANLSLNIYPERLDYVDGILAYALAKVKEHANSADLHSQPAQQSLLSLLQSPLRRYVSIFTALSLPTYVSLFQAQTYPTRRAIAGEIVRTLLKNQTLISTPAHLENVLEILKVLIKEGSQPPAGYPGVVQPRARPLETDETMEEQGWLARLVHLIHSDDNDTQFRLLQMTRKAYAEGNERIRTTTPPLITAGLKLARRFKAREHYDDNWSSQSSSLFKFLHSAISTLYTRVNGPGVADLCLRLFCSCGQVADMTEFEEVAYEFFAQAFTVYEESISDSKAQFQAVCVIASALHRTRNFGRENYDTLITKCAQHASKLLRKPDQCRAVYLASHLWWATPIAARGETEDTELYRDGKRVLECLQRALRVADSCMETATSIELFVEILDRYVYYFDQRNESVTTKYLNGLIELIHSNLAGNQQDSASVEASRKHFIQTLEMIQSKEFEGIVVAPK
T1 sequence (G0S0E6 1-316): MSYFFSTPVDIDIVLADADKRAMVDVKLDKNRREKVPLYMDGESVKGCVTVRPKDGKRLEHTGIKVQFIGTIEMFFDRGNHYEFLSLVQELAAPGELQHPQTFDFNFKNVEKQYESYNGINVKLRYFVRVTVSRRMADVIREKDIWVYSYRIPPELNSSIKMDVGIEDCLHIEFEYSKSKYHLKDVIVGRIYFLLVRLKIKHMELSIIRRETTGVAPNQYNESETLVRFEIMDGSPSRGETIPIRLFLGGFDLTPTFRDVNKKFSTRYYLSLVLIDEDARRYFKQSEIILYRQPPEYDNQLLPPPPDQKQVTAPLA

[8] = molecular target: human retromer complex (Vps35-[change]-Vps29) (human) (UniProt Q96QK1); test: ITC

- impact on thermal stability (Tm) of retromer (retromer holo-complex; 3 µM Retromer, 60 μM compound or 30-fold molar excess of peptide): unable to detect significant improvement
- impact on Retromer stability (retromer holo-complex; 1 mM (>300-fold molar excess)): little impact
Molecule: N=C(N)SCc1ccc(CSC(=N)N)s1 [R55]

- effect on melting temperature (Tm) of Vps29 (Vps29): increased
Molecule: CC[C@H](C)[C@@H]1NC(=O)[C@H]([C@@H](C)CC)NC(=O)[C@@H](Cc2ccc(O)cc2)NC(=O)CSC[C@@H](C(N)=O)NC(=O)[C@H](CCCNC(=N)N)NC(=O)[C@H](CCCCN)NC(=O)[C@H](CC(C)C)NC(=O)[C@H](CO)NC(=O)[C@H](CO)NC(=O)[C@H](CC(C)C)NC(=O)[C@H](Cc2ccccc2)NC(=O)[C@H](C(C)C)NC(=O)CNC(=O)[C@H](CC(C)C)NC(=O)[C@@H]2CCCN2C(=O)[C@H]([C@@H](C)O)NC(=O)[C@H](CC(=O)O)NC1=O [RT-D1] ({CH2CO}-[dY]IIDTPLGVFLSSLKRC-NH2; thioether N-17)

- effect on melting temperature (Tm) of Vps29 (Vps29): increased
Molecule: CC[C@H](C)[C@@H]1NC(=O)[C@H](CCCNC(=N)N)NC(=O)[C@@H]2CCCN2C(=O)[C@H](Cc2ccccc2)NC(=O)[C@H]([C@@H](C)O)NC(=O)CNC(=O)[C@H](CC(C)C)NC(=O)[C@@H]2CCCN2C(=O)[C@H]([C@@H](C)O)NC(=O)[C@H](Cc2c[nH]c3ccccc23)NC(=O)[C@H](Cc2ccc(O)cc2)NC(=O)[C@H]([C@@H](C)CC)NC(=O)[C@H]([C@@H](C)O)NC(=O)[C@H]([C@@H](C)O)NC(=O)[C@@H](Cc2ccc(O)cc2)NC(=O)CSC[C@@H](C(N)=O)NC(=O)[C@H](CCCNC(=N)N)NC1=O [RT-D2] ({CH2CO}-[dY]TTIYWTPLGTFPRIRC-NH2; thioether N-17)

- effect on melting temperature (Tm) of Vps29 (Vps29): increased
Molecule: CC[C@H](C)[C@@H]1NC(=O)[C@H](Cc2ccc(O)cc2)NC(=O)CSC[C@@H](C(N)=O)NC(=O)CNC(=O)[C@H](Cc2c[nH]cn2)NC(=O)[C@H](CCCNC(=N)N)NC(=O)[C@H](CC(N)=O)NC(=O)[C@@H]2CCCN2C(=O)[C@H](Cc2ccccc2)NC(=O)[C@H]([C@@H](C)O)NC(=O)CNC(=O)[C@H](CC(C)C)NC(=O)[C@@H]2CCCN2C(=O)[C@H]([C@@H](C)O)NC(=O)[C@H](CCCCN)NC1=O [RT-L1] ({CH2CO}-YIKTPLGTFPNRHGC-NH2; thioether N-15)

- effect on melting temperature (Tm) of Vps29 (Vps29): increased
Molecule: CC[C@H](C)[C@@H]1NC(=O)[C@H]([C@@H](C)O)NC(=O)[C@@H]2CCCN2C(=O)[C@H](CC(C)C)NC(=O)[C@H](Cc2ccc(O)cc2)NC(=O)CSC[C@@H](C(N)=O)NC(=O)[C@H](CC(C)C)NC(=O)[C@@H]2CCCN2C(=O)[C@H](Cc2c[nH]cn2)NC(=O)[C@H](Cc2c[nH]c3ccccc23)NC(=O)[C@H](CC(C)C)NC(=O)[C@H](Cc2c[nH]cn2)NC(=O)CNC(=O)[C@H](C(C)C)NC(=O)CNC(=O)[C@H]([C@@H](C)O)NC1=O [RT-L2] ({CH2CO}-YLPTITGVGHLWHPLC-NH2; thioether N-16)

- Kd [8]: 370 nM
Molecule: TBC domain of human TBC1D5 (from UniProt Q92609 1-795) (domain or fragment)

The next lines start with the molecule.

Molecule: CC(C)C[C@@H]1NC(=O)CNC(=O)[C@H](CC(C)C)NC(=O)[C@@H]2CCCN2C(=O)[C@H](CC(=O)O)NC(=O)[C@H](Cc2ccc(O)cc2)NC(=O)CNC(=O)[C@@H](Cc2ccc(O)cc2)NC(=O)CSC[C@@H](C(N)=O)NC(=O)[C@H](C)NC(=O)[C@H](Cc2ccccc2)NC(=O)[C@H](Cc2ccc(O)cc2)NC(=O)[C@H](CCCCN)NC1=O [RT-D3] ({CH2CO}-[dY]GYDPLGLKYFAC-NH2; thioether N-13)
- effect on TBC1D5 localization to endosomal structures [1]: significant dispersal
- effect on GST-TBC1D5TBC interaction with retromer [2]: inhibited
- effect on melting temperature (Tm) of Vps29 (Vps29): increased
- Kd (SNX27PDZ into Retromer): no impact
- Kd (TBC1D5TBC into Retromer): undetectable

Molecule: CC(C)C[C@@H]1NC(=O)[C@@H]2CCCN2C(=O)[C@H](CC(=O)O)NC(=O)[C@H](Cc2c[nH]c3ccccc23)NC(=O)CNC(=O)[C@@H](Cc2ccc(O)cc2)NC(=O)CSC[C@@H](C(N)=O)NC(=O)[C@H](C(C)C)NC(=O)[C@H](Cc2ccccc2)NC(=O)[C@H](Cc2ccc(O)cc2)NC(=O)[C@H](CC(N)=O)NC(=O)[C@H](C(C)C)NC(=O)[C@H](Cc2ccc(O)cc2)NC1=O [RT-D4] ({CH2CO}-[dY]GWDPLYVNYFVC-NH2; thioether N-13)
- solubility for ITC experiments (Solubility observations): not sufficiently soluble for ITC experiments

Molecule: CC(C)C[C@@H]1NC(=O)[C@H](Cc2ccc(O)cc2)NC(=O)CSC[C@@H](C(N)=O)NC(=O)[C@H](CC(N)=O)NC(=O)[C@H](C(C)C)NC(=O)[C@H](Cc2ccc(O)cc2)NC(=O)[C@H](Cc2ccccc2)NC(=O)[C@H](CC(C)C)NC(=O)[C@H](CCCNC(=N)N)NC(=O)[C@H](C(C)C)NC(=O)[C@H](Cc2ccc(O)cc2)NC(=O)[C@H](CC(C)C)NC(=O)[C@@H]2CCCN2C(=O)[C@H](CC(=O)O)NC(=O)[C@H](Cc2ccccc2)NC(=O)[C@H](CCC(=O)O)NC1=O [RT-L3] ({CH2CO}-YLEFDPLYVRLFYVNC-NH2; thioether N-16)
- solubility for ITC experiments (Solubility observations): not sufficiently soluble for ITC experiments

Molecule: CC[C@H](C)[C@@H]1NC(=O)[C@H](Cc2c[nH]c3ccccc23)NC(=O)[C@H](Cc2ccc(O)cc2)NC(=O)CSC[C@@H](C(N)=O)NC(=O)[C@H]([C@@H](C)O)NC(=O)[C@H](CO)NC(=O)[C@H](C(C)C)NC(=O)[C@H](Cc2ccc(O)cc2)NC(=O)[C@H](CCCNC(=N)N)NC(=O)[C@H](Cc2ccc(O)cc2)NC(=O)[C@H]([C@@H](C)O)NC(=O)[C@H]([C@@H](C)O)NC(=O)[C@H](Cc2c[nH]c3ccccc23)NC(=O)[C@H](CO)NC(=O)[C@H](CC(N)=O)NC(=O)[C@H](CO)NC1=O [RT-L4] ({CH2CO}-YWISNSWTTYRYVSTC-NH2; thioether N-16)
- Kd [3]: ~40 nM
- retromer binding to SNX3–CI-MPR cargo-PtdIns3P liposomes [4]: subtle reduction
- effect on TBC1D5 localization to endosomal structures [1]: no discernible effect
- increase in Tm for the Vps26A-Vps35_1–390 subcomplex [5]: 8 °C
- effect on thermal stability of Vps26A alone (Vps26A): did not affect
- effect on melting temperature (Tm) of Vps29 (Vps29): did not affect
- retromer ligands recovered with peptide-bound retromer [6]: able to interact with TBC1D5, VARP, Fam21, SNX27, and the SNX3–DMT1-II complex
- Kd (Vps26BΔC-Vps35_1–390): ~40 nM
- GAP-stimulated GTP hydrolysis of Rab7a [7]: slight improvement
- Kd (zfRetromer): 88 nM
- Kd (ctRetromer): 5000 nM
